The record followed here is US20180230127A1 (PFIZER INC., priority 2015, published 2018).

In general, IC50 refers to the concentration needed to halve the response being measured.

Structures can show the parent of a compound that is named as a salt.

The assay addresses T1, human IRAK4 kinase domain (aa 154-460) (Homo sapiens, UniProt Q9NWZ3).
T1 construct: human IRAK4 kinase domain (aa 154-460; GenBank ID AF445802)
T1 sequence (Q9NWZ3 154-460): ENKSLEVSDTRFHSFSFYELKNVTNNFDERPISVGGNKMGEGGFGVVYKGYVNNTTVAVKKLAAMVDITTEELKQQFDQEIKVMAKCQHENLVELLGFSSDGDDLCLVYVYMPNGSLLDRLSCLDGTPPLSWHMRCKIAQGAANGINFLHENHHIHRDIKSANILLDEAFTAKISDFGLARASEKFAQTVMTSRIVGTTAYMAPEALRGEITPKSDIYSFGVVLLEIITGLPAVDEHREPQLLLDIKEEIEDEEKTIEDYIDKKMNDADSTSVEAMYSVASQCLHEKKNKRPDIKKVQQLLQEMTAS
Kind of assay: IRAK4 Enzymatic DELFIA Assay. As to conditions: 0.6 mM ATP (KM); 114 pM IRAK4 kinase domain; 200 nM substrate; 5% DMSO. It is filed as biochemical. As to the method:
IRAK4 Enzymatic DELFIA Assay.
This is an in vitro assay to measure IRAK4 enzymatic activity utilizing the DELFIA (Dissociation-Enhanced Lanthanide Fluorescent Immunoassay, Perkin-Elmer) platform, with the human IRAK4 kinase domain (aa 154-460) construct to characterize IRAK4 inhibitor and control compounds at 0.6 mM ATP (KM). The final amount of enzyme in the assay is 114 pM IRAK4 kinase domain, final concentration of substrate is 200 nM, and final concentration of DMSO is 5%.
The test compound was solubilized in DMSO to a stock concentration of 30 mM. The dose response plates were prepared with a 2 mM primary compound concentration, and then diluted in DMSO in a four-fold series for a total of 10 data points. Compounds were prepared as a 20-fold multiple of the final in-assay concentration
To begin the assay, 45 μL of reaction mixture containing 20 mM HEPES pH=7.5, 5 mM MgCl2, 0.0025% Brij-35, […], 228 pM phosphorylated recombinant human IRAK4 kinase domain (aa 154-460; GenBank ID AF445802) were aliquoted into Ultra-Clear Polypropylene, 96-well, U-Bottom Plates (Corning Life Sciences). 5 μL of test compound from the dose-response plate was added to the reaction mixture and incubated for 15 minutes at room temperature. Then 50 μL of 20 mM HEPES pH=7.5, 5 mM MgCl2, 0.0025% Brij-35, 600 μM ATP, and 400 nM ERM-biotinylated peptide (AGAGRDKYKTLRQIR) were added to start the reaction. The reaction was incubated for 90 minutes at room temperature and stopped by the addition of 25 μL 0.5M EDTA.
100 μL of the reaction mixture was transferred to a streptavidin coated detection plate (EvenCoat Streptavidin Coated Plates, 96-Well, R&D Systems) and incubated for 30 minutes at room temperature. The plates were washed 4 times with 100 μL per well of PBS containing 0.05% Tween-20. Plates were then incubated with 50 μL per well of antibody cocktail of Anti-pERM antibody (Cell Signaling Technology) diluted 1:5000, plus Anti-Rabbit IgG EuN1 at 0.242 μg/ml (Perkin-Elmer Life Sciences) in a solution of 10 mM MOPS pH=7.5, 150 mM NaCl, 0.05% Tween-20, 0.02% NaN3, 1% BSA, 0.1% Gelatin for 45 minutes. The plates were washed 4× with 100 μL per well of PBS containing 0.05% Tween-20. Then 100 μL per well of DELFIA Enhancement Solution were added to the plate and then read on an EnVision Model 2103 using a 340 nm excitation wavelength and a 665 nm emission detection.
In the case of `CC(=O)N1CCCC(Oc2ccnc3cc(C(N)=O)c(OC(C)C)cc23)C1` (stereo not drawn) [Example 43, 4-[(1-acetylpiperidin-3-yl)oxy]-6-(propan-2-yloxy)quinoline-7-carboxamide], the IC50 was found to be 0.399 µM. With `CC(C)Oc1cc2c(OC3CCCN(C)C3)ccnc2cc1C(N)=O` (stereo not drawn) [Example 71, 4-[(1-methylpiperidin-3-yl)oxyl]-6-(propan-2-yloxy)quinoline-7-carboxamide], 1.2 µM corresponded to half-maximal inhibition (IC50). Under `CC(C)Oc1cc2c(O[C@@H]3[C@@H]4CC=C[C@H]3NC4=O)nccc2cc1C(N)=O` [Example 66, 1-{[(1S,5R,8R)-7-oxo-6-azabicyclo[3.2.1]oct-3-en-8-yl]oxy}-7-(propan-2-yloxy)isoquinoline-6-carboxamide] stands 0.038 µM; under `CCOc1cc2c(O[C@@H]3CCCN(C(=O)CC#N)C3)ccnc2cc1C(N)=O` [Example 32, 4-{[(3R)-1-(cyanoacetyl)piperidin-3-yl]oxy}-6-ethoxyquinoline-7-carboxamide], 0.035 µM; under `CC(C)Oc1cc2c(O[C@@H]3CCCN(C(=O)[C@@H](N)CC#N)C3)ccnc2cc1C(N)=O` [Example 46, 4-({(3R)-1-[(2S)-2-amino-3-cyanopropanoyl]piperidin-3-yl}oxy)-6-(propan-2-yloxy)quinoline-7-carboxamide trifluoroacetate], 0.097 µM. For `CC(C)Oc1cc2c(O[C@@H]3CCCNC3)ncc(C#N)c2cc1C(N)=O` [Example 73, 4-cyano-1-[(3R)-piperidin-3-yloxy]-7-(propan-2-yloxy)isoquinoline-6-carboxamide], the IC50 came to 1.59 µM.

On to `CC(C)Oc1cc2c(O[C@@H]3CCCN(C(=O)C(F)(F)F)C3)ccnc2cc1C(N)=O` [Example 9, 6-(propan-2-yloxy)-4-{[(3R)-1-(trifluoroacetyl)piperidin-3-yl]oxy}quinoline-7-carboxamide formate], for which inhibition was half-maximal at 0.263 µM (IC50). Under `CCOc1cc2c(O[C@@H]3CCCNC3)ccnc2cc1C(N)=O` [Example 65, (R)-6-ethoxy-4-(piperidin-3-yloxy)quinoline-7-carboxamide hydrochloride] stands 0.419 µM. As for `CC(C)Oc1cc2c(O[C@@H]3CCCN(C(=O)c4c[nH]cn4)C3)ccnc2cc1C(N)=O` [Example 14, 4-{[(3R)-1-(1H-imidazol-4-ylcarbonyl)piperidin-3-yl]oxy}-6-(propan-2-yloxy)quinoline-7-carboxamide formate], the figure is 0.856 µM. Under `CC(C)Oc1cc2c(O[C@H]3CNCC[C@@H]3C)ccnc2cc1C(N)=O` [Example 78, 4-{[(3R,4S)-4-methylpiperidin-3-yl]oxy}-6-(propan-2-yloxy)quinoline-7-carboxamide] stands 3.04 µM; under `CC(C)Oc1cc2c(O[C@@H]3CCCN(C(=O)CC#N)C3)ncc(Cl)c2cc1C(N)=O` [Example 37, 4-chloro-1-{[(3R)-1-(cyanoacetyl)piperidin-3-yl]oxy}-7-(propan-2-yloxy)isoquinoline-6-carboxamide], 0.04 µM.

`CC(C)Oc1cc2c(O[C@@H]3CCCN(C(=O)C4(CN)CC4)C3)ccnc2cc1C(N)=O` [Example 15, 4-{[(3R)-1-{[1-(aminomethyl)cyclopropyl]carbonyl}piperidin-3-yl]oxy}-6-(propan-2-yloxy)quinoline-7-carboxamide formate] had a half-inhibitory concentration (IC50) of 0.999 µM. Under `CC(C)Oc1cc2c(O[C@H]3CCN(C(=O)CC#N)C[C@H]3F)ccnc2cc1C(N)=O` [Example 18, 4-{[(3R,4S)-1-(cyanoacetyl)-3-fluoropiperidin-4-yl]oxy}-6-(propan-2-yloxy)quinoline-7-carboxamide formate] stands 0.66 µM. Under `N#CCC(=O)N1CCC[C@@H](Oc2ccnc3cc(C(N)=O)c(OC(F)F)cc23)C1` [Example 31, 4-{[(3R)-1-(cyanoacetyl)piperidin-3-yl]oxy}-6-(difluoromethoxy) quinoline-7-carboxamide] stands 0.101 µM; under `CC(C)Oc1cc2c(O[C@H]3CCNC3)ccnc2cc1C(N)=O` [Example 26, 6-(propan-2-yloxy)-4-[(3S)-pyrrolidin-3-yloxy]quinoline-7-carboxamide formate], 0.95 µM.
